# Measurements reported in patent US6372466B1, “C-4 specific sulfotransferase” (Seikagaku Corporation, priority 1998, dated 2002).
# “Also recorded” adds a separate entry of the source.
# What was measured:
# Format in all cases: biochemical, rat
# [1] = test system: G4ST; experiment: G4ST enzymatic activity assay ([35S]PAPS sulfate transfer to chondroitin)
# Protocol: The activities of G4ST and C6ST were assayed in accordance with the method of Habuchi, O. et al. (Habuchi, O., Matsui, Y., Kotoya, Y., Aoyama, Y., Yasuda, Y., and Noda, M., (1993) J. Biol. Chem., 268, 21968-21974). The reaction mixture contained imidazole hydrochloride (2.5 μmol, pH 6.8), protamine chloride (1.25 μg), dithiothreitol (0.1 μmol), chondroitin (25 nmol as glucuronic acid, derived from squid skin, prepared by the method described in Habuchi, O. and Miyata, K. (1980) Biochim. Biophys. Acta 616, 208-217), [^35S]PAPS (50 pmol: about 5.0×10^5 cpm: prepared by the method of Delfert, D. M., et al. (Delfert, D. M., and Conrad, H. E. (1985) Anal. Biochem. 148, 303-310)) and an enzyme in a final volume of 50 μl.
# The above-mentioned reaction mixture was incubated at 37° C. for 20 minutes and immersed in a water bath kept at 100° C. for 1 minute to stop the enzymatic reaction. After the reaction was stopped, [^35S]-labeled chondroitin was isolated by desalting by gel chromatography using a Fast Desalting Column and precipitation with ethanol, and radioactivity was measured by the conventional manner.
# To distinguish the activities of C6ST and G4ST one from another, [^35S]-labeled chondroitin was digested with chondroitinase ACII and unsaturated disaccharides (ΔDi-4S (2-acetamide-2-deoxy-3-O-(β-D-gluco-4-enepyranosyluronic acid)-4-O-sulfo-D-galactose) and ΔDi-6S (2-acetamide-2-deoxy-3-O-(β-D-gluco-4-enepyranosyluronic acid-6-O-sulfo-D-galactose)) were separated by paper chromatography (filter paper: Toyo No. 51A and solvent: 1-butanol/acetic acid/NH3 (1 M) (volume ratio 2:3:1)), the separated unsaturated disaccharides were visualized by irradiation of ultraviolet rays, the regions containing the disaccharides were cut out, and then radioactivities thereof were counted.
# The amount of enzymatic activity required for transferring 1 pmol of a sulfate group for 1 minute under the conditions of 37° C. and pH 6.8 was defined as one unit as a unit of enzymatic activity.
# Also, in the above-mentioned assay method for enzymatic activity, pH of imidazole hydrochloride buffer in the reaction mixture was varied (pH range: 6.3 to 7.6) and in addition, the buffer was replaced by one of buffers having various pH ranges (0.05 M, acetate buffer: pH 4.2 to 5.4, MES buffer: pH 5.4 to 6.8, Tris-HCl buffer: pH 7.2 to 9.0), and G4ST activity was assayed at each pH range (FIG. 6B).
# In the above-mentioned assay method for enzymatic activity, the concentration of [^35S]PAPS in the reaction mixture was varied to measure the Km value of [^35S]PAPS as a sulfate group donor.
# [2] = test system: G4ST; experiment: Identification of the sulfate group-transferring site of G4ST (chondroitinase digestion, HPLC / Superdex 30); details: 35S-labeled by G4ST, digested with chondroitinase ACII, Partisil 10-SAX HPLC
# Protocol: To identify the sulfate group-transferring. site of chondroitin and desulfated dermatan sulfate, ^35S-labeled glycosaminoglycan obtained by sulfotransfer reaction by G4ST was digested with chondroitinase ACII (manufactured by Seikagaku Corp.) or chondroitinase ABC (manufactured by Seikagaku Corp.) and the digestion products were analyzed by HPLC (high performance liquid chromatography). ^35S-Labeling was performed under the same conditions as the above-mentioned assay method for enzymatic activity except that the amount of protamine chloride was increased to 10 μg. The unsaturated disaccharides obtained by the digestion of ^35S-labeled chondroitin and ^35S-labeled desulfated dermatan sulfate with chondroitinase ACII or chondroitinase ABC were isolated by HPLC using a Partisil 10-SAX column (4.5 mm×25 cm: manufactured by Whatman) equiberated with KH2PO4 (35 mM). The column was eluted by concentration gradient of KH2PO4 under the conditions of a flow rate of 1 ml/minute and a column temperature of 40° C. to recover 0.5 ml of fractions.
# Further, a Superdex 30 gel chromatography was performed using a digestion product obtained by digesting ^35S-labeled desulfated dermatan sulfate with chondroitinase ABC and chondroltinase ACII or chondroitinase ACII alone. […]
# Target sequence in this assay (P69478 101-352 limits assumed): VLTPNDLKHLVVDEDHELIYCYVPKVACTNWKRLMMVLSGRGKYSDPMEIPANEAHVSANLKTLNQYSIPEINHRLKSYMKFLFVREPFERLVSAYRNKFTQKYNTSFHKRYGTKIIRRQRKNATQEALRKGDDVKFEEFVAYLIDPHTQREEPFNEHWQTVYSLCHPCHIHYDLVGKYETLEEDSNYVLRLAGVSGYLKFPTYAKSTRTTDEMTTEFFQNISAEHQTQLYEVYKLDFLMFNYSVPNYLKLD
# [3] = test system: G4ST; experiment: Substrate specificity of G4ST (sulfate transfer to glycosaminoglycans); details: for transfer of a sulfate group by G4ST to the glycosaminoglycan as acceptor: 25 nmol as galactosamine or glucosamine, replacing chondroitin in the reaction mixture
# Protocol: According to the measurement method for enzymatic activity described above, the activity of G4ST of transferring a sulfate group to glycosaminoglycans other than chondroitin was measured. A reaction mixture used as a control of reaction was the reaction mixture described for the above-mentioned assay method for enzymatic activity (imidazole hydrochloride (2.5 μmol, pH 6.8), protamine chloride (1.25 μg), dithiothreitol (0.1 μmol), chondroitin (25 nmol as glucuronic acid), [^35S]PAPS (50 pmol: about 5.0×10^5 cpm), and an enzyme, total volume 50 μl) and the activity was measured by replacing the chondroitin contained in the above-mentioned reaction mixture as a control with (1) chondroitin sulfate A (derived from whale cartilage) (manufactured by Seikagaku Corp.), chondroitin sulfate C (derived from shark cartilage) (manufactured by Seikagaku Corp.), and chondroitin sulfate E (derived from squid cartilage) (prepared by the method described in Habuchi, O., Sugiura, K., Kawai, N. and Suzuki, S. (1977) J. Biol. Chem. 252, 4570-4576), (2) dermatan sulfate (derived from pig skin) (manufactured by Seikagaku Corp.), (3) desulfated dermatan sulfate (prepared by the method described by Nagasawa, et al. (Nagasawa, K., Inoue, Y., and Tokuyasu, T. (1995) J. Biochem. 86, 1323-1329)), (4) heparan sulfate (derived from bovine kidney) (manufactured by Seikagaku Corp.), (5) CDSNS-heparin (completely desulfated N-sulfated heparin: manufactured by Seikagaku Corp.), and (6) keratan sulfate (derived from bovine cornea) (manufactured by Seikagaku Corp.) ((1), (2) and (3) were each in an amount of 25 nmol as galactosamine, while (4), (5) and (6) were each in an amount of 25 nmol as glucosamine).
# To identify a sulfate group receptor, the purified G4ST was allowed to react with various glycosaminoglycans in the presence of protamine chloride in various concentrations (FIG. 7). In FIG. 7, closed circles indicate the results on chondroitin, open circles indicates the results on desulfated dermatan sulfate, closed triangles indicate the results on chondroitin sulfate A, open triangles indicates the results on chondroitin sulfate C, and closed square indicate the results on dermatan sulfate.
# Target sequence in this assay (P69478 101-352 limits assumed): as above
# [4] = test system: G4ST; experiment: G4ST enzymatic activity assay ([35S]PAPS sulfate transfer to chondroitin); details: protamine 0.25 mg/ml
# Target sequence in this assay (P69478 101-352 limits assumed): as above
# [5] = SH group-containing substance in the reaction mixture
Compound,effect on G4ST activity ([1]; metal ion 5 mM),transfer of a sulfate group by G4ST to the glycosaminoglycan as acceptor [3],further results
O[C@H](CS)[C@H](O)CS (racemic) [dithiothreitol],–,–,"effect on G4ST activity [1, 5]: enhanced the activity of G4ST"
OCCS [2-mercaptoethanol],–,–,"effect on G4ST activity [1, 5]: enhanced the G4ST activity"
[Ba+2] [Ba^2+],activated; also recorded: enhanced,–,–
[Ca+2] [Ca^2+],activated; also recorded: most activated; also recorded: enhanced,–,–
[Co+2] [Co^2+],inhibit the activity of G4ST; also recorded: inhibited,–,–
[Fe+2] [Fe^2+],activated; also recorded: enhanced,–,–
[Mg+2] [Mg^2+],–,–,activating action on G4ST compared with other metal ions ([1]; concentration not printed for Mg2+): lowest in such an activating action
[Mn+2] [Mn^2+],activated; also recorded: enhanced,–,–
"Nc1ncnc2c1ncn2[C@@H]1O[C@H](COP(=O)(O)OS(=O)(=O)O)[C@@H](OP(=O)(O)O)[C@H]1O [PAPS, 3′-phosphoadenosine 5′-phosphosulfate]",–,–,"Km ([1]; [35S]PAPS as sulfate group donor, concentration varied): 270 nM"
[Sr+2] [Sr^2+],activated; also recorded: enhanced,–,–
N[C@@H](CCC(=O)N[C@@H](CS)C(=O)NCC(=O)O)C(=O)O [reduced glutathione],–,–,"effect on G4ST activity [1, 5]: enhanced the G4ST activity"
chondroitin,–,transfers a sulfate group,radioactivity in eluted fractions of ΔDi-4S [2]: radioactivity was detected only in the eluted fractions of ΔDi-4S; lowest protamine chloride concentration at which enhancement of activity was observed ([3]; protamine chloride in various concentrations): 0.25 mg/mL
chondroitin sulfate A,–,slight amount of activity; also recorded: transfers a sulfate group,–
chondroitin sulfate C,–,transfers a sulfate group,–
chondroitin sulfate E,–,transferred substantially no sulfate group,–
dermatan sulfate,–,transferred substantially no sulfate group,–
heparan sulfate,–,transferred substantially no sulfate group; also recorded: transfers substantially no sulfate group,–
keratan sulfate,–,transferred substantially no sulfate group,–
protamine,–,–,effect on G4ST activity [4]: activated; also recorded: enhanced
